Data published in PMC8746705, “Comparison of Experimental Strategies to Study L-Type Amino Acid Transporter 1 (LAT1) Utilization by Ligands” (Molecules, 2021).

Key:
[1] = test system: immortalized mouse microglia (BV2); test: Time-dependent cellular uptake of compounds into BV2 cells (LC-MS/MS); type: cell-based; details: for Max. cellular uptake: 100 µM compound, 1–60 min, mean ± SD, n = 3
In short: (§1)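 BV2 cells were incubated with 100 μM compound in HBSS at 37 °C for 1–60 min, washed ice-cold and lysed in 0.1 M NaOH. Intracellular compound was quantified by positive-mode ESI LC-MS/MS against internal-standard calibration curves and normalised to Bradford protein content.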

[2] = as above; type: cell-based, mouse; details: mouse, BV2 microglia cells, 100 µM compound, 1–60 min, mean ± SD, n = 3, read-out: T½ of cellular uptake
In short: as §1

LAT1 [3] = target: T1, LAT1 (Mus musculus, UniProt Q9Z127); test: Concentration-dependent cellular uptake into BV2 cells, Eadie–Hofstee analysis, Transport Type 1 (LAT1); type: cell-based; details: for Km / Transport Type 1 (LAT1) Vmax: 1–200 µM, 30 min, BV2, Eadie–Hofstee, mean ± SD, n = 3; for Cellular uptake: BV2 cells
T1 sequence (Q9Z127 whole entry): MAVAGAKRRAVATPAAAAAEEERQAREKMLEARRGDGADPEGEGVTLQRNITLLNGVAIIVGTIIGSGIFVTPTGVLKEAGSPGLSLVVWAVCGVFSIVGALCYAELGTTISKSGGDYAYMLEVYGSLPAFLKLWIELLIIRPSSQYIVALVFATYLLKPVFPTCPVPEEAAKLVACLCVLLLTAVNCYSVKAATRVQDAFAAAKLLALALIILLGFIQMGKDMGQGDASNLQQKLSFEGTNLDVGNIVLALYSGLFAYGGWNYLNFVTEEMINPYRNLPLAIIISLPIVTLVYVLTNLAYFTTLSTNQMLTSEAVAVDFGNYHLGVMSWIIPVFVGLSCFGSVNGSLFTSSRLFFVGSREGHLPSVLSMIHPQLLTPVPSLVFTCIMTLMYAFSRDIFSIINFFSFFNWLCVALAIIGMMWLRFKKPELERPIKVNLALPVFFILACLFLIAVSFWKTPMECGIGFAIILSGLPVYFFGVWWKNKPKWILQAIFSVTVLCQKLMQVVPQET
T1 sequence (P10852 whole entry partner): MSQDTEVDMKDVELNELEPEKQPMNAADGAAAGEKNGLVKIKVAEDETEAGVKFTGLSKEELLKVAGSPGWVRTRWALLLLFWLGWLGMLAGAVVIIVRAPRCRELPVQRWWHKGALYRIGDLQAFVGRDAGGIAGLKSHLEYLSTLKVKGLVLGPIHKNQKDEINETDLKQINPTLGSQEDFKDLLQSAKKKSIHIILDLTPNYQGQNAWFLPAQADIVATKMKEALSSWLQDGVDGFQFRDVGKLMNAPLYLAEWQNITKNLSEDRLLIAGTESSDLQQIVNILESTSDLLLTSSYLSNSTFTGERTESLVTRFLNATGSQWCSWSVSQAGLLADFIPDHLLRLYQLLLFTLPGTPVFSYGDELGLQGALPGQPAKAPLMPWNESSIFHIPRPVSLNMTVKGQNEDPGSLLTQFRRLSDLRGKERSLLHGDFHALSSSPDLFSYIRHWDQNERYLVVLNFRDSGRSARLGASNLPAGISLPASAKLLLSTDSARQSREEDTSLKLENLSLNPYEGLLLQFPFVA
In short: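 Mouse BV2 microglia incubated 30 min at 37 °C in HBSS with compounds at 1–200 μM. Intracellular compound quantified by LC-MS/MS (positive ESI, C18 column) and normalized to total protein. Transport components resolved from Michaelis-Menten kinetics by Eadie–Hofstee analysis.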

[4] = test system: immortalized mouse microglia (BV2 cells); test: Cellular viability (resazurin / Alamar blue); type: cell-based; details: 72 h
Experimental: Immortalized microglia (BV2 cells) were seeded at the density of 10 × 10^3 cells/well onto collagen-coated 96-well plates. The cells were used for the proliferation experiments one day after seeding. The studied compounds (50 and 100 µM) were added into the growth medium and incubated for 3 days (the medium was replaced with a fresh one with studied compounds after daily measurements). Each day the cell viability was determined by the resazurin cell proliferation kit (MilliporeSigma, St. Louis, MO, USA), which is directly proportional to aerobic respiration and cellular metabolism of cells. The samples were measured fluorometrically by monitoring the increase in fluorescence at λex 560 nm and λem 590 nm with the Envision plate reader (EnVision, Perkin Elmer, Inc., Waltham, MA, USA). The cell viability was also followed by visualizing the wells with microscopy. The ability of compounds to inhibit the viability of the cells was expressed as percentages (%) compared to the untreated controls.

LAT1 [5] = target: T1, LAT1; test: Cellular uptake of compounds in the presence of LAT1-inhibitor (KMH-233); type: cell-based; details: 100 µM compound, 100 µM KMH-233, 30 min, BV2
In short: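 Cells were pre-exposed 10 min to 100 µM KMH-233, then incubated 30 min in HBSS with 100 µM compound plus inhibitor. Intracellular compound was quantified by LC-MS against a spiked standard curve and normalised to protein.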

LAT1 [6] = target: T1, LAT1; test: Inhibition type of [14C]-L-Leu uptake (Hanes-Woolf plots) in BV2 cells; type: cell-based; details: for Vmax of [14C]-L-Leu uptake: 0.010–0.20 µM [14C]-L-Leu in the presence of the compound at its IC50, mean ± SD, n = 3–4; for Vmax of [14C]-L-Leu uptake / Inhibition Type: BV2; for IC50: Table 2, compound concentration used in the inhibition type study, corresponding to IC50 of [14C]-L-Leu uptake; for Inhibition Type: of [14C]-L-Leu uptake, concluded from Km and Vmax
In short: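 BV2 cells preincubated 10 min at 37 °C in Na+-free choline HBSS (pH 7.4), then exposed to 0.010–0.20 μM [14C]-L-leucine plus compound at IC50-guided concentration; uptake counted by liquid scintillation. Km and Vmax derived by linear regression of Hanes-Woolf plots ([S]/v vs substrate).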

[7] = higher concentrations (>100 µM)

Row | half-life at 100 μM [2] | Km (LAT1 [3]) | Transport Type 1 (LAT1) Vmax (LAT1 [3]) | Cellular uptake (LAT1 [3]) | Cellular uptake in the presence of LAT1-inhibitor (LAT1 [5]) | Vmax of [14C]-L-Leu uptake (LAT1 [6]) | IC50 (LAT1 [6]) | Inhibition Type (LAT1 [6]) | Structure (SMILES) | Max. cellular uptake [1] | Effect on cell viability [4, 7] | LAT1-substrate or LAT1-binder ([1]; concluded from time-dependent uptake, 100 µM) | Effect on cell viability ([4]; 50 µM)
1 | 9.11 ± 1.52 min | 116 ± 72 µM | 750 ± 435 pmol/mg/min | highest cellular uptake | inhibited significantly | 1.792 ± 0.106 nmol/min/mg | 7 µM | Mixed type | NC(Cc1cccc(C(=O)Oc2ccc(-c3ccc(-c4ccc5c(c4)COC5=O)s3)cc2)c1)C(=O)O (centres unmarked) [Compound 1] | 176.0 ± 9.0 nmol/mg of protein | started to impact the cell viability |  | 
2 | 1.97 ± 0.66 min | 0.8 ± 0.1 µM | 0.09 ± 0.01 pmol/mg/min |  | inhibited significantly | 2.759 ± 0.066 nmol/min/mg | 3 µM | Mixed type | C[C@H](C(=O)Nc1cccc(C[C@H](N)C(=O)O)c1)c1cccc(C(=O)c2ccccc2)c1 [Compound 2] | 22.31 ± 1.34 nmol/mg of protein | started to impact the cell viability |  | 
3 | 1.86 ± 0.42 min | 41 ± 6 µM | 88 ± 9 pmol/mg/min | effectively transported into the cells | inhibited significantly | 1.599 ± 0.170 nmol/min/mg | 15 µM | Non-competitive | C[C@H](C(=O)Oc1cccc(C[C@H](N)C(=O)O)c1)c1cccc(C(=O)c2ccccc2)c1 [Compound 4] | 4.17 ± 0.19 nmol/mg of protein | started to impact the cell viability |  | 
4 | < 1 min | 2.1 ± 0.4 µM | 0.11 ± 0.01 pmol/mg/min |  | only reductive trends were seen | 1.910 ± 0.057 nmol/min/mg |  | Un-competitive | COc1cc(C=CC(=O)NCc2cccc(CC(N)C(=O)O)c2)ccc1O (centres unmarked) [Compound 5] | cannot be calculated |  | LAT1-binders rather than substrates | 
5 | 2.65 ± 0.6 min |  |  |  | inhibited significantly | 1.644 ± 0.073 nmol/min/mg | 19 µM | Un-competitive | N[C@@H](Cc1cccc(NC(=O)c2ccccc2O)c1)C(=O)O [Compound 8] | 8.05 ± 0.40 nmol/mg of protein |  |  | 
6 | > 300 min |  |  |  | inhibited significantly | 2.422 ± 0.061 nmol/min/mg | 6 µM | Non-competitive | C[C@H](C(=O)Nc1cccc(C[C@H](N)C(=O)O)c1)c1ccc(-c2ccccc2)c(F)c1 [Compound 9] | 101.6 ± 86.1 nmol/mg of protein |  |  | minor effects on cell viability
7 | 19.2 ± 5.71 min |  |  |  | inhibited significantly | 1.513 ± 0.218 nmol/min/mg | 4 µM | Mixed type | C[C@H](C(=O)Oc1cccc(C[C@H](N)C(=O)O)c1)c1ccc(-c2ccccc2)c(F)c1 [Compound 12] | 36.12 ± 4.17 nmol/mg of protein | started to impact the cell viability |  | minor effects on cell viability
8 | 12.5 ± 3.62 min | 9.3 ± 2.7 µM | 280 ± 65 pmol/mg/min | highest cellular uptake | inhibited significantly | 1.448 ± 0.099 nmol/min/mg | 10 µM | Non-competitive | COc1ccc2cc([C@H](C)C(=O)Oc3cccc(C[C@H](N)C(=O)O)c3)ccc2c1 [Compound 15] | 29.09 ± 2.84 nmol/mg of protein | started to impact the cell viability |  | minor effects on cell viability

Row | Structure (SMILES) | half-life at 100 μM [2] | Km (LAT1 [3]) | Transport Type 1 (LAT1) Vmax (LAT1 [3]) | Cellular uptake (LAT1 [3]) | Cellular uptake in the presence of LAT1-inhibitor (LAT1 [5]) | Vmax of [14C]-L-Leu uptake (LAT1 [6]) | IC50 (LAT1 [6]) | Inhibition Type (LAT1 [6]) | Max. cellular uptake [1] | Effect on cell viability [4, 7] | LAT1-substrate or LAT1-binder ([1]; concluded from time-dependent uptake, 100 µM) | Effect on cell viability ([4]; 50 µM)
9 | COc1cc(/C=C/C(=O)Oc2cccc(C[C@H](N)C(=O)O)c2)ccc1O [Compound 7] | 7.35 ± 3.44 min | 0.3 ± 0.1 µM | 0.09 ± 0.03 pmol/mg/min |  | inhibited significantly | 2.780 ± 0.126 nmol/min/mg | 38 µM | Mixed type | 21.14 ± 2.93 nmol/mg of protein |  |  | 
